Assay results taken from paper PMC11648822, “Lactam Truncation Yields a Dihydroquinazolinone Scaffold with Potent Antimalarial Activity that Targets PfATP4” (Chemmedchem, 2024).

Molecular target: T1, Dd2‐PfATP4^WT (Plasmodium falciparum, UniProt A0A143ZZK9, G1128R)
T1 construct: We prepared membranes from Dd2‐Polδ‐PfATP4^G358S parasites (generated previously[22]) and Dd2‐Polδ parental parasites; endogenous in cells; host or cells: P. falciparum Dd2-Polδ trophozoites (membrane preparation)
T1 sequence (A0A143ZZK9 1-1264 G1128R): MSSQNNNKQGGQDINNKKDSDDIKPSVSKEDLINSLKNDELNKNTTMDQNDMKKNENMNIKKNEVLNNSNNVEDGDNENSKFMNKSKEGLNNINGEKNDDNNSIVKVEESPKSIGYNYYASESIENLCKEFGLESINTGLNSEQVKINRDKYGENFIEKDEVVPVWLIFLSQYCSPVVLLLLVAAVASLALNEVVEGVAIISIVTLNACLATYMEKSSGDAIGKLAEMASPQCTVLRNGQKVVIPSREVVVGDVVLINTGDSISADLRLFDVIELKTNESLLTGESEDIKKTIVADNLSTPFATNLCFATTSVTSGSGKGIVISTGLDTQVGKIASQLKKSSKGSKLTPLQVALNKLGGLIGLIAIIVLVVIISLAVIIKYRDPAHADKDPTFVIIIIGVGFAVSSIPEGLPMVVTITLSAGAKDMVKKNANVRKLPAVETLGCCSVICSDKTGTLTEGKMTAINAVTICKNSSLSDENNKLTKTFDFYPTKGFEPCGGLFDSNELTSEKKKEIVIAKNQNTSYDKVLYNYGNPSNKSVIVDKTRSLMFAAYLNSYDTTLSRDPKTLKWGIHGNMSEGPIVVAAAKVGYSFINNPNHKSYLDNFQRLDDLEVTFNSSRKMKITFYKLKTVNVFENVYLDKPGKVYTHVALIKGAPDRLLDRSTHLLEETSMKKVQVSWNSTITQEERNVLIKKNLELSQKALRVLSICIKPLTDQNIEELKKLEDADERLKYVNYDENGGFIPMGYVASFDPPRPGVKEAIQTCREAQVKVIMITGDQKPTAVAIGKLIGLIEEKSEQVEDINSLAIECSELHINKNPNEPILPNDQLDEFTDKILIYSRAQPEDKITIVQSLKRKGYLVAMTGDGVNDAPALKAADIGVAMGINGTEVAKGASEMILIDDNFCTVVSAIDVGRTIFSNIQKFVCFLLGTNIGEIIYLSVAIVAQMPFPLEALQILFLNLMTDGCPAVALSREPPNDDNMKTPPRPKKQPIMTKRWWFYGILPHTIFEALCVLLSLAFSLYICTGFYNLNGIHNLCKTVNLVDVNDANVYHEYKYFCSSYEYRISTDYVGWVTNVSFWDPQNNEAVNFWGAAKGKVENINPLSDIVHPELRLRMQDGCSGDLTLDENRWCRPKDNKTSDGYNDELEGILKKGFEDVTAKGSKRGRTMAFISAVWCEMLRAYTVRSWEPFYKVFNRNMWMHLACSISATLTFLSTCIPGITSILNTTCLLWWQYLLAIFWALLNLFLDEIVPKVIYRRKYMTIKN
Assay: PfATP4 Na+ assay (membrane ATPase), Dd2-Polδ parental membranes
Format: biochemical, P. falciparum
Conditions: membranes from Dd2-Polδ parental parasites
Procedure: Figure 4 Dihydroquinazolinone analogs 14 and 36 (WJM062) inhibit Na^+‐ATPase activity in membranes prepared from isolated P. falciparum parasites, consistent with them being PfATP4 inhibitors. (A) The effects of dihydroquinazolinone compounds (2 μM), dihydroartemisinin (DHA; 50 nM; negative control) and 0.2 % v/v DMSO (solvent‐only control) on membrane ATPase activity under high‐[Na^+] conditions (152 mM Na^+) and low‐[Na^+] conditions (2 mM Na^+; stemming from the addition of 1 mM Na2ATP) in the presence and absence of the PfATP4 inhibitor cipargamin (50 nM). The membranes were prepared from isolated trophozoite‐stage 3D7 parasites. The Pi produced is expressed as a percentage of that measured in the 152 mM Na^+ Control. The data are from four independent experiments performed with different membrane preparations; the symbols show the data from individual experiments and the bars show the mean (+SEM). In individual experiments, the Pi produced in the 152 mM Na^+ Control varied from 66 to 96 nmol per mg (total) protein per min. A repeated measures ANOVA with a post hoc Tukey test was used to compare the (pre‐normalised) data for different compounds and conditions. […] In B−D, the Pi production measured in the low‐[Na^+] (2 mM) condition was subtracted from that measured in high‐[Na^+] […] The PfATP4‐associated ATPase activity is expressed as a percentage of that obtained for the high‐[Na^+] […]

CN1C(=O)c2ccc(Cl)cc2NC1(C)C(=O)Nc1cncc(Cl)c1 (centres unmarked) [Compound 14, 7‐Chloro‐N‐(5‐chloro‐3‐pyridyl)‐2,3‐dimethyl‐4‐oxo‐1H‐quinazoline‐2‐carboxamide]
EC50: 8.4 nM

COc1cc(F)c2c(c1)NC(C)(C(=O)Nc1cncc(Cl)c1)N(C)C2=O (centres unmarked) [Compound 36, N‐(5‐Chloropyridin‐3‐yl)‐5‐fluoro‐7‐methoxy‐2,3‐dimethyl‐4‐oxo‐1,2,3,4‐tetrahydroquinazoline‐2‐carboxamide]
EC50: 7.8 nM
